From the supplement of paper PMC11061612

Tests used:
[1] = system: SK-LMS-1 (Other Solid Carcinomas); experiment: Bliss excess, mean over the matrix (fraction); higher = more synergy
Summary of the method: (§1)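 Bliss excess equals the observed combination effect minus the expected value EA + EB − EA·EB, where EA and EB are the effects of each agent alone. Combination Emax is the second-highest inhibition within the matrix. Inhibition was scaled from CellTiter-Glo 2.0 luminescence, with 0 set by vehicle wells and 1 by blank wells, after 72 hours of two-drug dosing of cells plated in 1536-well plates.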

[2] = system: SNG-M (Endometrial Carcinoma); experiment: as above
Summary of the method: as §1

[3] = system: FU-OV-1 (Ovarian Carcinoma); experiment: as above
Summary of the method: as §1

[4] = system: HCC38 (Breast Carcinoma); experiment: as above
Summary of the method: as §1

[5] = system: Saos-2 (Osteosarcoma); experiment: as above
Summary of the method: as §1

[6] = system: HLE (Hepatocellular Carcinoma); experiment: as above
Summary of the method: as §1

[7] = system: SW948 (Colorectal Carcinoma); experiment: combination Emax (second highest fraction inhibited in the dose matrix, 72 h); higher = more inhibition; extreme values may be limits of the assay
Summary of the method: as §1

[8] = system: BICR78 (Oral Cavity Carcinoma); experiment: as above
Summary of the method: as §1

[9] = system: MSTO-211H (Mesothelioma); experiment: as above
Summary of the method: as §1

[10] = system: FU-OV-1 (Ovarian Carcinoma); experiment: as above
Summary of the method: as §1

[11] = system: D-283MED (Other Solid Carcinomas); experiment: as above
Summary of the method: as §1

[12] = system: Saos-2 (Osteosarcoma); experiment: as above
Summary of the method: as §1

[13] = system: SLVL (B-Cell Non-Hodgkin's Lymphoma); experiment: as above
Summary of the method: as §1

[14] = system: MEG-01 (Chronic Myelogenous Leukemia); experiment: as above
Summary of the method: as §1

[15] = system: H4 (Low Grade Glioma); experiment: as above
Summary of the method: as §1

[16] = system: CAL-39 (Other Solid Carcinomas); experiment: as above
Summary of the method: as §1

[17] = system: YT (Other Blood Carcinomas); experiment: as above
Summary of the method: as §1

[18] = system: EW-22 (Ewing's Sarcoma); experiment: as above
Summary of the method: as §1

[19] = system: HLE (Hepatocellular Carcinoma); experiment: as above
Summary of the method: as §1

[20] = system: SK-MEL-1 (Melanoma); experiment: as above
Summary of the method: as §1

Row | Compound | Bliss excess [1] | Bliss excess [2] | Bliss excess [3] | Bliss excess [4] | Bliss excess [5] | Bliss excess [6] | combination Emax [7] | combination Emax [8] | combination Emax [9] | combination Emax [10] | combination Emax [11] | combination Emax [12] | combination Emax [13] | combination Emax [14] | combination Emax [15] | combination Emax [16] | combination Emax [17] | combination Emax [18] | combination Emax [19] | combination Emax [20]
1 | C=CCn1c(=O)c2cnc(Nc3ccc(N4CCN(C)CC4)cc3)nc2n1-c1cccc(C(C)(C)O)n1 [AZD1775] + CCc1c2c(nc3ccc(O)cc13)-c1cc3c(c(=O)n1C2)COC(=O)[C@]3(O)CC [SN-38] (first compound max 1 µM, partner max 0.3 µM) | -0.0441 | -0.0087 | -0.102 | -0.0765 | -0.0514 | -0.0436 | 0.862 | 0.854 | 0.783 | 0.711 | 0.996 | 0.964 | 0.967 | 0.964 | 0.908 | 0.947 | 0.977 | 0.94 | 0.791 | 0.56
2 | C=CCn1c(=O)c2cnc(Nc3ccc(N4CCN(C)CC4)cc3)nc2n1-c1cccc(C(C)(C)O)n1 [AZD1775] + Nc1ccn([C@@H]2O[C@H](CO)[C@@H](O)C2(F)F)c(=O)n1 [Gemcitabine] (first compound max 1 µM, partner max 0.3 µM) | -0.027 | -0.0314 | -0.0741 | 0.0214 | -0.0728 | 0.0609 | 0.879 | 0.718 | 0.815 | 0.633 | 0.995 | 0.843 | 0.954 | 0.918 | 0.949 | 0.914 | 0.997 | 0.921 | 0.709 | 0.422
3 | CN(CCO)CC[C@H](CSc1ccccc1)Nc1ccc(S(=O)(=O)NC(=O)c2ccc(N3CCC([C@@H](O)c4ccccc4-c4ccc(Cl)cc4)CC3)cc2)cc1S(=O)(=O)C(F)(F)F [AZD4320] + CC(=O)O[C@H]1C(=O)[C@@]2(C)[C@H]([C@H](OC(=O)c3ccccc3)[C@]3(O)C[C@H](OC(=O)[C@H](O)[C@@H](NC(=O)c4ccccc4)c4ccccc4)C(C)=C1C3(C)C)[C@]1(OC(C)=O)CO[C@@H]1C[C@@H]2O [Paclitaxel] (first compound max 1 µM, 7x7, partner max 3 µM) | 0.0954 | 0.0275 | 0.0924 | 0.0324 | 0.0937 | -0.0036 | 0.942 | 0.941 | 0.881 | 0.716 | 1 | 0.968 | 1 | 0.991 | 1 | 1 | 1 | 0.999 | 0.93 | 0.623
4 | CN(CCO)CC[C@H](CSc1ccccc1)Nc1ccc(S(=O)(=O)NC(=O)c2ccc(N3CCC([C@@H](O)c4ccccc4-c4ccc(Cl)cc4)CC3)cc2)cc1S(=O)(=O)C(F)(F)F [AZD4320] + CS(=O)(=O)CCNCc1ccc(-c2ccc3ncnc(Nc4ccc(OCc5cccc(F)c5)c(Cl)c4)c3c2)o1 [Lapatinib] (first compound max 1 µM, 7x7, partner max 10 µM) | 0.0357 | -0.0091 | -0.0203 | 0.0173 | 0.083 | 0.0535 | 0.96 | 0.456 | 0.952 | 0.59 | 0.988 | 0.746 | 0.98 | 0.986 | 0.93 | 0.97 | 0.451 | 0.971 | 0.945 | 0.808
5 | Cc1c2c(nn1C)CSCc1cc(n(C)n1)CSc1cc(c3ccccc3c1)OCCCc1c(C(=O)O)n(C)c3c-2c(Cl)ccc13 [AZD5991] + Nc1ccn([C@@H]2O[C@H](CO)[C@@H](O)C2(F)F)c(=O)n1 [Gemcitabine] (first compound max 1 µM, 7x7, partner max 0.3 µM) | -0.009 | -0.0174 | -0.0321 | -0.0432 | 0.0374 | 0.0249 | 0.334 | 0.642 | 0.861 | 0.196 | 0.986 | – | 0.968 | 0.745 | 0.949 | 0.899 | 1 | 0.933 | 0.713 | 0.441
6 | N#Cc1cnc(Nc2cc(NC[C@H]3CNCCO3)c(C(F)(F)F)cn2)cn1 [SRA737] + O=c1[nH]cc(F)c(=O)[nH]1 [5-Fluorouracil] (first compound max 10 µM, 7x7, partner max 20 µM) | -0.0143 | -0.0115 | -0.0284 | 0.0257 | -0.0179 | -0.0146 | 0.45 | 0.55 | 0.536 | 0.158 | – | 0.457 | 0.927 | 0.835 | 0.619 | 0.345 | 0.993 | 0.736 | 0.129 | 0.157
